Source: the NIST ThermoML archive (doi:10.1016/j.jct.2014.01.023)

Details: Crystal; for vapor or sublimation pressure: Transpiration method

CN1C(=O)N(C)C(=O)C(C)(C)C1=O [1,3,5,5-tetramethylpyrimidine-2,4,6(1H,3H,5H)-trione]
Details | vapor or sublimation pressure [kPa]
323.2 K | 0.00344
326.2 K | 0.00457
328.2 K | 0.00555
332.1 K | 0.00801
334.2 K | 0.0099
336.2 K | 0.01132
338.2 K | 0.01415
340.1 K | 0.01647
342.9 K | 0.02036
346 K | 0.02803
347.4 K | 0.03182
349.2 K | 0.03555
350.1 K | 0.04039
351 K | 0.04459
351.1 K | 0.04429
352.9 K | 0.05014
355.2 K | 0.05715
356.2 K | 0.06561
360.2 K | 0.08943
365 K | 0.135
367.6 K | 0.168

CC1C(=O)N(C)C(=O)N(C)C1=O [1,3,5-trimethylbarbituric acid]
Details | Normal melting temperature [°C] | vapor or sublimation pressure [kPa]
322.5 K | – | 0.00289
328.4 K | – | 0.00528
332.6 K | – | 0.00792
338.6 K | – | 0.01482
343 K | – | 0.02296
349.4 K | – | 0.04451
354.5 K | – | 0.06767
358.6 K | – | 0.09676
DTA | 90.50 | –

CN1C(=O)NC(=O)C(C)(C)C1=O [1,5,5-trimethylbarbituric acid]
Details | vapor or sublimation pressure [kPa]
360 K | 0.00265
366.1 K | 0.00471
366.2 K | 0.00487
374.2 K | 0.00972
379.6 K | 0.01551
380.8 K | 0.01685
382.7 K | 0.02034
386.8 K | 0.02976
387.5 K | 0.02935
388.7 K | 0.03375
389.7 K | 0.03771
392.6 K | 0.04726
393.7 K | 0.05266
396.7 K | 0.06438
402.5 K | 0.09884
406.7 K | 0.1462
410.2 K | 0.187
411.7 K | 0.196
414.2 K | 0.2461
419.9 K | 0.3607
427.9 K | 0.6087
